Measurements published in PubChem BioAssay (NCI).
Where “and” joins values, the source holds several entries; their conditions need not be identical. Equal entries are not always repeated.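 These data come from cells grown in 96-well plates and exposed to compound for 48 hours at five concentrations. The concentration for 50% growth inhibition is given as GI50. TGI: concentration producing complete growth inhibition.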

Assays:
Test in all cases: NCI tumour cell line growth inhibition, 48 h
RXF-631 renal = tested on: RXF-631 renal
LXFL 529 NSCLC = tested on: LXFL 529 NSCLC
KM20L2 colon = tested on: KM20L2 colon
DMS 114 small cell lung = tested on: DMS 114 small cell lung
PC-3 prostate = tested on: PC-3 prostate
MDA-N = tested on: MDA-N
T-47D breast = tested on: T-47D breast
MCF7 breast = tested on: MCF7 breast
BT-549 breast = tested on: BT-549 breast
SN12K1 renal = tested on: SN12K1 renal
P388/ADR leukemia = tested on: P388/ADR leukemia

Structure (SMILES)	TGI (RXF-631 renal) [µM]	TGI (LXFL 529 NSCLC) [µM]	TGI (KM20L2 colon)	TGI (DMS 114 small cell lung)	also measured
Cc1cccc2c1C(=O)OC2(c1cccc2ccccc12)c1cccc2ccccc12	51.4	> 100	> 100 µM	> 100 µM	
C=CCN1C(=O)C/C(=C2/CCC(=O)N2CC=C)C1=O	> 100	> 100	> 100 µM	> 100 µM	
O=C(O)c1ccccc1/C=C1/Nc2ccccc2C1=O					TGI (PC-3 prostate): > 100 µM; TGI (MDA-N): > 100 µM; TGI (T-47D breast): > 100 µM; TGI (MCF7 breast): > 100 µM
CCC[CH2][Sn]1([CH2]CCC)[O]N=Cc2ccccc2[O]1		0.447	2.55 µM	0.94 µM	GI50 (LXFL 529 NSCLC): 0.142 µM; GI50 (KM20L2 colon): 1.26 µM; GI50 (DMS 114 small cell lung): 0.309 µM
C/C(=N/OCCC(=O)O)C1CC1		> 100	> 100 µM	> 100 µM	
CCCCCCCC(=O)O[C@H]1[C@H]2[C@@H](CC1(C)C)C(=O)[C@]13O[C@H]1C(=O)[C@]1(CO1)[C@]23C	39	3.03	11.9 µM and 13.8 µM	3.41 µM and 9.4 µM	TGI (BT-549 breast): 28.8 µM; TGI (PC-3 prostate): 30.8 µM; TGI (MDA-N): 26.5 µM; GI50 (KM20L2 colon): 2.73 µM; GI50 (DMS 114 small cell lung): 1.61 µM; TGI (SN12K1 renal): 9.3 µM; TGI (P388/ADR leukemia): 1.65 µM; GI50 (MCF7 breast): 4.99 µM; TGI (MCF7 breast): 19.4 µM and 10.5 µM
Cc1ccc(S(=O)(=O)N/N=C/CN2C(=O)c3ccccc3C2=O)cc1		> 100	> 100 µM	> 100 µM	
CC(C)S(=O)(=O)ON1C(=O)c2ccc([N+](=O)[O-])cc2C1=O	> 100	> 100		> 100 µM	
O=C(O)CSc1nnc(COc2ccccc2)n1-c1ccccc1		> 100	> 100 µM	> 100 µM	
CC(C)C(NCc1c2ccccc2nc2ccccc12)C(=O)O (centres undefined)	97.3	> 100	> 100 µM	90.1 µM	
CC[C@@]1(O)C(=O)N(CCN(C)C)Cc2c1cc1n(c2=O)Cc2cc3ccccc3nc2-1					GI50 (BT-549 breast): 42.5 µM; TGI (BT-549 breast): > 100 µM; GI50 (PC-3 prostate): 41.3 µM; TGI (PC-3 prostate): > 100 µM; GI50 (MDA-N): > 83.8 µM; TGI (MDA-N): > 100 µM; GI50 (T-47D breast): 21 µM; TGI (T-47D breast): > 100 µM; GI50 (MCF7 breast): 14.9 µM; TGI (MCF7 breast): > 100 µM
CC(=O)[O-].CC(=O)[O-].CC(=O)[O-].CC(=O)[O-].CO.CO.CO.[Rh+2].[Rh+2].c1ccc(-c2ccccn2)nc1		> 100	> 100 µM	> 100 µM	GI50 (LXFL 529 NSCLC): 55.6 µM; GI50 (KM20L2 colon): > 100 µM; GI50 (DMS 114 small cell lung): 62.2 µM
COc1ccc2nc(NC(=O)C(=O)C(C#N)c3ccc(CC#N)cc3)sc2c1 (centres undefined)		> 100	> 100 µM		
O=C1NC(=Nc2ccccc2Cl)SC1C(=O)Nc1ccc([N+](=O)[O-])cc1[N+](=O)[O-] (centres undefined)	> 100	> 100	> 100 µM	> 100 µM	
CCn1c(-c2nonc2N)nc2c(C#CC(C)(C)O)ncc(OCC3CCNCC3)c21					GI50 (BT-549 breast): 11 µM; TGI (BT-549 breast): > 25 µM; GI50 (PC-3 prostate): 7.48 µM; TGI (PC-3 prostate): > 25 µM; GI50 (T-47D breast): > 25 µM; TGI (T-47D breast): > 25 µM; GI50 (MCF7 breast): 6.19 µM; TGI (MCF7 breast): > 25 µM
CCOc1c(Cc2ccccc2)c(=O)n2c3ccccc3n3c(=O)n(C)c(=O)c1c23	> 100	> 100		> 100 µM	
CC1(C)CC(=O)C=C(NC(=O)c2ccccc2)C1	> 100	> 100		> 100 µM	
CC1CC(=O)CC[C@@H]1OCc1ccccc1 (some centres undefined)			> 100 µM	> 100 µM	
CCC(C)Cn1c(C)nc2c1C(=O)c1ccccc1C2=O (centres undefined)		> 100	> 100 µM		
Nc1ccc(C(=O)N/C(=C\c2ccc3c(c2)OCO3)c2nc3ccc4c(c3[nH]2)C(=O)c2ccccc2C4=O)cc1	> 100	> 100	> 100 µM	> 100 µM	
Cc1cncc2cccc(S(=O)(=O)N3CCCNC[C@@H]3C)c12					GI50 (BT-549 breast): 4.04 µM; TGI (BT-549 breast): 35.9 µM; GI50 (PC-3 prostate): 44.3 µM; TGI (PC-3 prostate): > 100 µM; GI50 (T-47D breast): > 80.3 µM; TGI (T-47D breast): > 100 µM; GI50 (MCF7 breast): 11.5 µM; TGI (MCF7 breast): > 100 µM
